Assay results taken from US11052026B2, “Multi-capsule containing pigment for cosmetic material or functional component, and method for producing same” (CHEMLAND. CO., LTD., priority 2017, dated 2021).

Test: Residual rate of functional component during storage at 35° C. for 16 weeks (Example 1)
Format: physicochemical
Settings: stored at 35° C.
Protocol: The residual rates of the functional components were compared while the cosmetic functional multi-capsule in Preparation Example 3 was stored at 35° C.

| Compound | Functional Component Residual Rate (storage period 2 weeks) | Functional Component Residual Rate (storage period 4 weeks) | Functional Component Residual Rate (storage period 6 weeks) | Functional Component Residual Rate (storage period 8 weeks) | Functional Component Residual Rate (storage period 10 weeks) | Functional Component Residual Rate (storage period 12 weeks) | Functional Component Residual Rate (storage period 14 weeks) | Functional Component Residual Rate (storage period 16 weeks) | Ascorbic Acid Residual Rate (storage period 2 weeks) | Ascorbic Acid Residual Rate (storage period 4 weeks) | Ascorbic Acid Residual Rate (storage period 6 weeks) | Ascorbic Acid Residual Rate (storage period 8 weeks) | Ascorbic Acid Residual Rate (storage period 10 weeks) | Ascorbic Acid Residual Rate (storage period 12 weeks) | Ascorbic Acid Residual Rate (storage period 14 weeks) | Ascorbic Acid Residual Rate (storage period 16 weeks) |
| --- | --- | --- | --- | --- | --- | --- | --- | --- | --- | --- | --- | --- | --- | --- | --- | --- |
| anthocyanin [compound 2] | 97.2% | 94.5% | 91.8% | 88.8% | 86.5% | 78.5% | 74.5% | 69.5% | – | – | – | – | – | – | – | – |
| O=C1O[C@H]([C@@H](O)CO)C(O)=C1O [compound 1, ascorbic acid] | – | – | – | – | – | – | – | – | 97.2% | 95.3% | 92.9% | 90% | 88.4% | 81.2% | 76.3% | 70.5% |
